Laboratory results as given in ChEMBL document CHEMBL5032522, “N-2-(phenylamino) benzamide derivatives as novel anti-glioblastoma agents: Synthesis and biological evaluation” (Eur J Med Chem, 2021).
Active and inactive are the calls of the source. The calls are words filed in the database; no cut-off is given here.

Experiments:
C6 = assay: Antitumor activity against rat C6 cells inoculated orthotopic Sprague-Dawley rat model assessed as reduction in tumor volume at 100 mg/kg, ip bid administered for 14 days; format: functional, organism-based; conditions: time 14.0 day
[1] = target: T1, Prostaglandin G/H synthase 2 (Homo sapiens) (UniProt P35354); assay: Inhibition of COX-2 in human U-87 MG cells assessed as inhibition of PGE2 production measured after 72 hrs; format: cell-based
T1 sequence (whole entry): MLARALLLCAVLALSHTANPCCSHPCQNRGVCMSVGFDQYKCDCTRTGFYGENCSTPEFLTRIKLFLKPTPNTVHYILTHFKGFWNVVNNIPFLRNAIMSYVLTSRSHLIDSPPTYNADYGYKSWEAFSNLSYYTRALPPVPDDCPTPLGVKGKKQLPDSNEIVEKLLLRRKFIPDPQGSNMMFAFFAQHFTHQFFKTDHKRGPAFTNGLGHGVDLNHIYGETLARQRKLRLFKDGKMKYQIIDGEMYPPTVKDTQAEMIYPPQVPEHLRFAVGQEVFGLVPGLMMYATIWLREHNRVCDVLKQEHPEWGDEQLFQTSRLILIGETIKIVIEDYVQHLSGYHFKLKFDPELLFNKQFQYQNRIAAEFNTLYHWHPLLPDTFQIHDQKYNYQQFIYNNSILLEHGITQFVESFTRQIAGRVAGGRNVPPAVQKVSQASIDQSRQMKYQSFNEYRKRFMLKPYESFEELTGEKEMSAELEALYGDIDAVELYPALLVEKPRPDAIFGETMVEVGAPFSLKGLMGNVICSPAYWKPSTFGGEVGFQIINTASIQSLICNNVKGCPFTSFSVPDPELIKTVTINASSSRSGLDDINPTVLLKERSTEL

U-87 MG [2] = assay: Inhibition of cell migration in human U-87 MG cells incubated for 24 hrs by crystal violet staining based light microscopic analysis; format: functional; conditions: U-87MG ATCC
[3] = Toxicity in Sprague-Dawley rat inoculated with C6 cells assessed as reduction in body weight at 100 mg/kg, ip bid administered for 14 days; format: organism-based; conditions: in vivo, 336 h, time 14 day
Rattus norvegicus [4] = species on record: Rattus norvegicus; assay: Upregulation of E-cadherin protein expression in Sprague-Dawley rat orthotopic model inoculated with C6 cells by Western blot analysis; format: functional
[5] = Acute toxicity in Kunming mouse assessed as death at 300 mg/kg, ip administered as single dose observed every day for 14 days; format: organism-based; conditions: in vivo, 336 h, time 14 day
U-87 MG [6] = assay: Antitumor activity against human U-87 MG cells xenografted in BALB/c nude mouse assessed as reduction in Ki67 expression in tumor at 20 mg/kg, ip bid measured every 3 days for 25 days by immunohistochemical analysis; format: functional, organism-based; conditions: U-87MG ATCC, time 25.0 day
U-87 MG [7] = assay: Antitumor activity against human U-87 MG cells xenografted in BALB/c nude mouse assessed as reduction in tumor weight at 20 mg/kg, ip bid measured every 3 days for 25 days; format: functional, organism-based; conditions: U-87MG ATCC, time 25.0 day
[8] = Toxicity in BALB/c mouse xenografted with human U-87 MG cells assessed as reduction in body weight at 20 mg/kg, ip bid measured after 25 days; format: organism-based; conditions: in vivo, 600 h, time 25 day
Rattus norvegicus [9] = assay: In vivo inhibition of STAT3 activation in ip dosed orthotopic Sprague-Dawley rat model inoculated with C6 cells assessed as decrease in p-STAT3 in tumor tissue by Western blot analysis; format: functional, organism-based
Rattus norvegicus [10] = species on record: Rattus norvegicus; assay: Downregulation of MMP-9 protein expression in Sprague-Dawley rat orthotopic model inoculated with C6 cells by Western blot analysis; format: functional
U-87 MG [11] = assay: Antitumor activity against human U-87 MG cells xenografted in BALB/c nude mouse assessed as tumor growth inhibition at 20 mg/kg, ip bid measured every 3 days for 25 days relative to control; format: functional, U-87MG ATCC; conditions: 600 h, time 25 day, read-out: TGI

Cc1c(Cl)cccc1Nc1ccccc1C(=O)Nc1ccc2c(c1)OCO2
Activity (C6): Active
inhibition [1]: Active
inhibition (U-87 MG [2]): Dose-Dependent Effect
Activity [3]: Non-Toxic

COc1ccc(NC(=O)c2ccccc2Nc2cccc(Cl)c2C)cc1
Activity (C6): Active
inhibition [1]: Active
Activity (Rattus norvegicus [4]): Active
Activity [5]: Non-Toxic
inhibition (U-87 MG [2]): Dose-Dependent Effect
Activity (U-87 MG [6]): Active
Activity (U-87 MG [7]): Active
Activity [8]: Non-Toxic
inhibition (Rattus norvegicus [9]): Active
Activity [3]: Non-Toxic
Activity (Rattus norvegicus [10]): Active
inhibition in vivo at 20 mg/kg (U-87 MG [11]): 69.4%
